Earlier results in patent publication US20250295727A1, “STABLE, READY-TO-ADMINISTER AQUEOUS FORMULATIONS OF DALBAVANCIN” (HIKMA PHARMACEUTICALS USA INC., priority 2022, published 2025).

Settings: lyophilized
[1] = storage at 25° C. for 12 months

In the case of “dalbavancin [unformulated lyophilized dalbavancin]”, the “decrease of B0” value [1] is listed as 8.5%, the “increase of MAG” value [1] is listed as 10.2% and the “decrease in dalbavancin's primary factor B0” value (storage for 36 months at 5° C.) is listed as 3.6%. For the same substance, the “increase in MAG” value (storage for 36 months at 5° C.) was 2.9%.
